Tests used:
[1] = tested on: P388 mouse leukemia cells; assay: Life-span-prolonging (anti-tumor) effect on mice subcutaneously inoculated with P388 mouse leukemia cells; assay type: in vivo, mouse (CDF1 female); conditions: 0.1 mg/kg i.v. on days 1, 5 and 9
How it was run: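 CDF1 female mice (6 weeks), 5 per group, inoculated subcutaneously with P388 leukemia cells; life-span prolongation assessed. Lentinan and picibanil given intravenously on days 1, 3, 5, 7 and 9 after implantation; sizofilan given subcutaneously on days 1 through 9. Statistics by Mann-Whitney test.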

B16 mouse melanoma cells = assay: Tumor growth inhibition in mice subcutaneously inoculated with B16 mouse melanoma cells; assay type: in vivo, mouse (BDF1 female); conditions: 0.1 mg/kg i.v. days 1, 5, 9; maximum during 20 days
How it was run: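 Female BDF1 mice (6 weeks, n=6/group) bearing subcutaneous B16 melanoma. Tumor volume [(length×width×height)/2] measured on days 8, 12, 16 and 20 after implantation; growth inhibition rate computed from treated vs control tumor volumes.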

mouse bone marrow cells = assay: In vitro mouse bone marrow cell-proliferation-promoting effect (3H-TdR uptake); assay type: cell-based, mouse (BDF1 female); conditions: 4 days, 5760 min
How it was run: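 Femoral bone marrow monocytes from 6-week female BDF1 mice (Lympholite M fraction, 1×10^6 cells/ml in 10% FCS RPMI 1640) cultured with sample for 4 days at 37 °C, 5% CO2. 3H-TdR (0.5 μCi/well) added for final 6 h; uptake ratio versus vehicle reported as activation rate.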

mouse splenic lymphocyte = assay: In vitro mouse splenic lymphocyte-proliferation-stimulating effect (3H-TdR uptake); assay type: cell-based, mouse (BDF1 female); conditions: 2 days, 2880 min
How it was run: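 Spleen cells from 6-week-old female BDF1 mice, 2×10^6 cells/ml in 10% FCS RPMI 1640, cultured with vehicle or sample 2 days at 37° C, 5% CO2. ^3H-TdR (0.5 μCi/well) uptake over 6 h by scintillation counting, expressed as % of vehicle.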

[2] = tested on: mixed lymphocyte culture reaction (spleen cells of C57BL/6 and BALB/C mice); assay: Mixed lymphocyte culture reaction (MLR); assay type: cell-based, mouse (C57BL/6 stimulator, BALB/C responder); conditions: 42 hours, 2520 min
How it was run: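 Mouse one-way MLR: mitomycin C-treated (50 μg/ml, 30 min) C57BL/6 spleen cells stimulated BALB/C responder spleen cells, 2×10^6 cells/ml each, cultured 42 h at 37 °C with sample. ³H-thymidine (0.5 μCi/well) incorporation over a further 8 h gave MLR activating rate as % of vehicle uptake.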

lethally irradiated mice = assay: Radioprotective effect: life-span prolongation of lethally irradiated mice; assay type: in vivo, mouse (BDF1 female); conditions: 0.1 mg/kg i.v. days 0, 4, 8, 9 Gy X-ray, groups of 10, 0.1 mg/kg
How it was run: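 Female BDF1 mice (6 weeks, groups of 10) given 9 Gy X-ray on day 0, then compound 0.1 mg/kg intravenously by tail vein on days 0, 4 and 8. Survival followed for 40 days.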

[3] = Solubility in water in aqueous Polysorbate 20 solutions; assay type: physicochemical; conditions: vs Compound b
Experimental: Compounds a and b comprising a monosaccharide as a constituent sugar which are disclosed in WO 93/05055 were synthesized as above. A 1 mg of each of the present compounds 4, 31 and 33 and Compound a and b was dissolved in 1 ml of an aqueous Polysorbate 20 solution in a variety of concentrations in order to observe visually the property.

Compound: CCCCCCCCCCCCCCCCCCCCCC[C@@H](O)C(=O)N[C@@H](CO[C@H]1O[C@H](CO)[C@H](O)[C@H](O[C@H]2O[C@H](CO)[C@H](O)[C@H](O)[C@H]2NC(C)=O)[C@H]1O[C@H]1O[C@H](CO)[C@@H](O)[C@H](O)[C@H]1O)[C@H](O)[C@H](O)CCCCCCCCCCCCCC [Compound 4, O-(N-acetyl-2-amino-2-deoxy-α-D-galactopyranosyl)-(1→3)-O-[α-D-glucopyranosyl-(1→2)]-O-α-D-galactopyranosyl-(1→1)-(2S,3S,4R)-2-amino-N-[(R)-2-hydroxytetracosanoyl]-1,3,4-octadecanetriol]
- Survival days ave. ± s. d. ([1]; all marked ** (p < 0.01)): 15.2 ± 0.5 days
- T/C (%) ([1]; survival vs vehicle): 119%
- Maximum tumor growth inhibiting rate, TGIR (%) (B16 mouse melanoma cells): 84.0%
- Uptake of 3H-TdR (% of control), bone marrow cells (mouse bone marrow cells; 10^-1 μg/ml): 512 % of control
- Uptake of 3H-TdR (% of control), bone marrow cells (mouse bone marrow cells; 10^-2 μg/ml): 163 % of control
- Uptake of 3H-TdR (% of control), splenic lymphocytes (mouse splenic lymphocyte; 10^0 μg/ml): 792 % of control
- Uptake of 3H-TdR (% of control), splenic lymphocytes (mouse splenic lymphocyte; 10^-1 μg/ml): 692 % of control
- Uptake of 3H-TdR (% of control), splenic lymphocytes (mouse splenic lymphocyte; 10^-2 μg/ml): 395 % of control
- Uptake of 3H-TdR (% of control), splenic lymphocytes (mouse splenic lymphocyte; 10^-3 μg/ml): 325 % of control
- MLR activating rate (%) ([2]; 1 × 10^0 μg/ml): 209%
- MLR activating rate (%) ([2]; 1 × 10^-1 μg/ml): 163%
- Number of surviving mice (lethally irradiated mice; day 10): 10 mice
- Number of surviving mice (lethally irradiated mice; day 15): 8 mice
- Number of surviving mice (lethally irradiated mice; day 20): 8 mice
- Number of surviving mice (lethally irradiated mice; day 25): 6 mice
- Number of surviving mice (lethally irradiated mice; day 30): 5 mice
- Number of surviving mice (lethally irradiated mice; day 35): 5 mice
- Number of surviving mice (lethally irradiated mice; day 40): 5 mice
- amount of Polysorbate 20 required for dissolving, relative to that required for Compound b [3]: 1/100

Source: patent publication US5780441A, “Sphingoglycolipid compounds and therapeutic uses thereof” (Kirin Beer Kabushiki Kaisha, priority 1993, dated 1998)
